The values that follow are results of earlier work, collected in patent US20240139480A1, “RETENTIVE DEVICES FOR GASTROINTESTINAL TRACT” (Teva Pharmaceutical Industries Ltd., priority 2021, published 2024).

For this series the following is noted: given as ester prodrug; extensive intestinal esterase degradation.

Take `CC(C)OC(=O)OCOP(=O)(CO[C@H](C)Cn1cnc2c(N)ncnc21)OCOC(=O)OC(C)C` [Tenofovir disoproxil]: the bioavailability entry is listed as “about 30%”.
